The record followed here is PMC8151276, “An Integrated Approach toward NanoBRET Tracers for Analysis of GPCR Ligand Engagement” (Molecules, 2021).

For assay [1], the target named is T1, DRD1 (Homo sapiens, UniProt P21728).
T1 construct: purchased Promega (in-house HiBiT-GPCR construct library, NanoBRET)
Briefly: NanoBRET screen HiBiT-DRD1 in HEK293. In kind it is binding. The procedure:
(§1) Each tracer candidate was screened across the entire library of HiBiT-GPCR constructs using NanoBRET as the detection modality. As depicted in Figure 4A, the specificity of interactions was evaluated through decrease in BRET due to competitive displacement of a bound tracer by excess parental compound. Each tracer was analyzed for binding to each HiBiT-GPCR fusion in the absence and in the presence of competing parental compound. Briefly, HEK293 cells were transfected with HiBiT-GPCR constructs diluted into promoterless DNA to reduce expression and maximize translocation to the cell surface. Each tracer candidate was then screened at concentrations of 1 μM and 0.1 μM across cells expressing these fusions. Cells were treated for 1.5 h with tracer either alone or in the presence of 20 μM competing parental compound (i.e., control). BRET was measured upon addition of purified LgBiT and subsequent complementation with HiBiT genetically fused to a GPCR. The specificity of interactions was assessed through a decrease in BRET signal due to competitive displacement of the bound tracer. To further gauge the robustness of these interactions, the fold response over the control (i.e., BRETtracer/BRETcontrol) was calculated. We chose a 1.5-fold response, which translates to ≥7-fold signal over noise as the minimal threshold required to score an interaction as positive.
(§2) HiBiT-GPCR DNA constructs were diluted in 10 mM Tris pH 8 to a final concentration of 0.01 μg/μL, arrayed in 96-well plates and stored at −20 °C. For transfection, HEK293 cells were suspended in Opti-MEM (without phenol red) supplemented with 2% fetal bovine serum (Seradigm) and 100 units/mL penicillin–streptomycin (Gibco) at a final concentration of 220,000 cells/mL and dispensed into white 96-well plates at 90 μL/well. Subsequent transfections and screens were carried using an Agilent Bravo Automated Liquid Handling Platform. First, the 96-well HiBiT DNA arrays were diluted 25-fold in Opti-MEM (without serum or phenol red) to a final concentration of 0.0004 μg/μL and 20 μL of the diluted DNAs were transferred into new 96-well plates. Next, promoterless carrier DNA (1 μg/μL) was diluted 25-fold (0.04 μg/μL) and then dispensed into the diluted arrays at 20 μL/well. Following brief mixing, Viafect transfection reagent (Promega) diluted 16-fold into Opti-MEM was dispensed into the plates at 40 μL/well. After mixing by pipetting, plates were incubated for 10 min on the pipetting station deck. The DNA-transfection reagent complexes were then added to plates containing cells. To facilitate the screen, 10 μL of DNA-transfection reagent complexes were added in duplicates to the top 4 and bottom 4 rows, resulting in two identical 48-well arrays per plate. Plates with transfected cells were incubated for 18–20 h at 37 °C/5% CO2. A screen of each tracer across the entire library using two different concentrations requires duplicate plates of transfected cells. Depending on the number of tracers being screened, transfections can be scaled up using the same ratios. The next day, for each tracer, four 20× screening solutions in tracer dilution buffer (Promega) were prepared: two duplicates at final concentration of 20 μM and two duplicates at a final concentration of 2 μM. […] The four resulting solutions were diluted 4-fold in Opti-MEM without serum or phenol red to generate 5× solutions (5 µM and 0.5 µM tracer +/− 100 μM competing compound). To screen the library, a BioTek MultiFlo FX liquid dispenser was used to dispense 22.5 µL of tracer solution to the top 4 rows and 22.5 µL tracer + competing compound solution to the 4 bottom rows. Plates were briefly mixed on an orbital shaker and incubated for 1.5 h at room temperature. […] Plates were briefly mixed on an orbital shaker and incubated for 15 min to allow complementation.

The target in assay [2] is T2, HTR1F (Homo sapiens, UniProt P30939).
T2 construct: purchased Promega (in-house HiBiT-GPCR construct library, NanoBRET)
T2 sequence (P30939 1-366): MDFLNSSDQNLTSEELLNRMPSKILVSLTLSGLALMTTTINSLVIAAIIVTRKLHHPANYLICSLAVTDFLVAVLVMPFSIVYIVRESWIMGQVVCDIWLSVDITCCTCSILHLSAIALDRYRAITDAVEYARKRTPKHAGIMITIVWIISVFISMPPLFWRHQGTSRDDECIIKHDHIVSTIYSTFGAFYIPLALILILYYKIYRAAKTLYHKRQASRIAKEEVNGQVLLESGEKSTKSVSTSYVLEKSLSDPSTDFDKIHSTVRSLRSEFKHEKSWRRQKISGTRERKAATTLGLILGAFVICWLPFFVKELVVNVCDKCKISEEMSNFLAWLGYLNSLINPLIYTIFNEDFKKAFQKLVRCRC
In words: NanoBRET screen HiBiT-HTR1F in HEK293. In kind it is binding. The procedure:
as §1, §2

T1 sequence (P21728 whole entry): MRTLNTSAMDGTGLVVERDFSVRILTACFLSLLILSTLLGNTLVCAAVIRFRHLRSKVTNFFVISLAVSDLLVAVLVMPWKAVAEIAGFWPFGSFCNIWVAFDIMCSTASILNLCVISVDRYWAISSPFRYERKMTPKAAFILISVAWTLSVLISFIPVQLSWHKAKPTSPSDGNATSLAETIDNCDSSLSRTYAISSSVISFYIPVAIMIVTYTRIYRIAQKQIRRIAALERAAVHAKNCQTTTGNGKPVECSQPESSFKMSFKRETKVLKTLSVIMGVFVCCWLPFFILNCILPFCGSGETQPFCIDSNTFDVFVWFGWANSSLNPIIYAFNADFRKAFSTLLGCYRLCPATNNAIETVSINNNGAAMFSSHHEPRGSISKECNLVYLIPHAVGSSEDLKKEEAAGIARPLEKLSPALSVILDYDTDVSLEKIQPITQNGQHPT

Consider `O=C(CCOCCOCCOCCOCCNC(=O)CCc1ccc2n1[B-](F)(F)[N+]1=C(c3ccc[nH]3)C=CC1=C2)NCCCN1CCN(C2=Nc3ccccc3Oc3ccc(Cl)cc32)CC1` [Loxapine-a-2-NB590], for which the “NanoBRET Fold Response” value is recorded as 1.65 in assay [1] (DRD1, tracer 0.1μM); 2.64 in assay [1] (DRD1, tracer 1μM); 1.01 in assay [2] (HTR1F, tracer 0.1μM); 1.07 in assay [2] (HTR1F, tracer 1μM).

`CCCn1c(=O)c2[nH]c(-c3ccc(OCC(=O)NCCNC(=O)CCOCCNC(=O)c4ccc(CNC(=O)CCc5ccc6n5[B-](F)(F)[N+]5=C(c7ccc[nH]7)C=CC5=C6)cc4)cc3)nc2n(CCC)c1=O` [XAC-3-NB590]: the “NanoBRET Fold Response” value in assay [1] (DRD1, tracer 0.1μM) is 0.90; in assay [1] (DRD1, tracer 1μM) it was 1.11; in assay [2] (HTR1F, tracer 0.1μM), 1.07; in assay [2] (HTR1F, tracer 1μM), 1.05.

On to `CN(C)CCC=C1c2ccccc2CCc2ccc(C(=O)NCCNC(=O)CCOCCOCCOCCOCCNC(=O)CCc3ccc4n3[B-](F)(F)[N+]3=C(c5ccc[nH]5)C=CC3=C4)cc21` [Amitriptyline-a-2-NB590], for which the “NanoBRET Fold Response” value is 1.04 in assay [1] (tracer at 0.1μM), 1.23 in assay [1] (tracer at 1μM), 0.97 in assay [2] (tracer at 0.1μM) and 1.02 in assay [2] (tracer at 1μM).

Consider `COc1ccccc1N1CCN(CCCCN2C(=O)c3ccc(CNC(=O)CCOCCOCCOCCOCCNC(=O)CCc4ccc5n4[B-](F)(F)[N+]4=C(c6ccc[nH]6)C=CC4=C5)cc3C2=O)CC1` [NAN-190-2-NB590], for which the “NanoBRET Fold Response” value in assay [1] (DRD1, tracer 0.1μM) is on record as 1.23; in assay [1] (DRD1, tracer 1μM) it was 1.53; in assay [2] (HTR1F, tracer 0.1μM), 1.29; in assay [2] (HTR1F, tracer 1μM) it was 2.39.

For `O=C(CCc1ccc2n1[B-](F)(F)[N+]1=C(c3ccc[nH]3)C=CC1=C2)NCc1ccc(C(=O)NCCOCCOCCNCC(O)COc2cccc3ccccc23)cc1` (stereo not drawn) [Propranolol-3-NB590], the “NanoBRET Fold Response” value is 1.01 in assay [1] (DRD1, 0.1μM); 0.98 in assay [1] (DRD1, 1μM); 1.08 in assay [2] (HTR1F, 0.1μM); 0.99 in assay [2] (HTR1F, 1μM).

`COc1ccccc1N1CCN(CCCCN2C(=O)c3ccc(CNC(=O)CCOCCNC(=O)c4ccc(CNC(=O)CCc5ccc6n5[B-](F)(F)[N+]5=C(c7ccc[nH]7)C=CC5=C6)cc4)cc3C2=O)CC1` [NAN-190-3-NB590]: the “NanoBRET Fold Response” value in assay [1] (DRD1, tracer 0.1μM) was 1.75; in assay [1] (DRD1, tracer 1μM) it was 1.32; in assay [2] (HTR1F, tracer 0.1μM), 2.92; in assay [2] (HTR1F, tracer 1μM) it was 1.93.

With `O=C(CCc1ccc2n1[B-](F)(F)[N+]1=C(c3ccc[nH]3)C=CC1=C2)NCc1ccc(C(=O)NCCOCCC(=O)N[C@@H]2CC[C@@]3(O)[C@H]4Cc5ccc(O)c6c5[C@@]3(CCN4CC3CC3)[C@H]2O6)cc1` [Naltrexone-3-NB590], the “NanoBRET Fold Response” value worked out at 0.98 in assay [1] (DRD1, tracer 0.1μM); 1.03 in assay [1] (DRD1, tracer 1μM); 1.35 in assay [2] (HTR1F, tracer 0.1μM); 1.30 in assay [2] (HTR1F, tracer 1μM).

With `CCOC(=O)c1cc(C#N)c(N2CCC(C(=O)NS(=O)(=O)Cc3ccccc3/C=C/C(=O)NCCNC(=O)CCc3ccc4n3[B-](F)(F)[N+]3=C(c5ccc[nH]5)C=CC3=C4)CC2)nc1C` [AZD1283-1-NB590], the “NanoBRET Fold Response” value in assay [1] (DRD1, 0.1μM) was found to be 1.07; in assay [1] (DRD1, 1μM), 1.10; in assay [2] (HTR1F, 0.1μM) it was 1.04; in assay [2] (HTR1F, 1μM), 1.02.

In the case of `CN1CCN(C2=Nc3cc(Cl)ccc3N(CC(=O)NCCOCCOCCOCCOCCNC(=O)CCc3ccc4n3[B-](F)(F)[N+]3=C(c5ccc[nH]5)C=CC3=C4)c3ccccc32)CC1` [Clozapine-c-2-NB590], the “NanoBRET Fold Response” value in assay [2] (HTR1F, 0.1μM tracer) is recorded as 1.02; in assay [2] (HTR1F, 1μM tracer) it was 0.91.

For `CN1CCN(C2=Nc3cc(Cl)ccc3Nc3ccc(CNC(=O)CCOCCOCCOCCOCCNC(=O)CCc4ccc5n4[B-](F)(F)[N+]4=C(c6ccc[nH]6)C=CC4=C5)cc32)CC1` [Clozapine-b-2-NB590], the “NanoBRET Fold Response” value in assay [2] (HTR1F, 0.1μM tracer) came out at 1.00; in assay [2] (HTR1F, 1μM tracer), 1.28.
